# Measured values taken from patent publication US11040947B2, “Substituted quinazolines as matrix metalloproteinase-9 hemopexin domain inhibitors” (The Research Foundation for The State University of New York, priority 2017, dated 2021).
# Legend:
# proMMP-9 [1] = biological target: T1, proMMP-9 (Homo sapiens, UniProt P14780); experiment: proMMP-9 tryptophan fluorescence blue shift binding assay
# T1 construct: Purified recombinant MMP-9 (50 nmol/L) or MMP-9/MMP-2PEX (50 nmol/L) was diluted in buffer
# Experimental: A blue shift in proMMP-9 tryptophan fluorescence was monitored to determine the binding affinity of all compounds. Binding of a test compound to MMP-9 was assayed by observing the change of tryptophan emission upon binding. Purified recombinant MMP-9 (50 nmol/L) or MMP-9/MMP-2PEX (50 nmol/L) was diluted in buffer (50 mmol/L Tris-HCl, 60 mmol/L KCl, and 0.05% Tween 20, pH 7.4) in the presence or absence of the test compound. As a control for protein stability and loss, an analogous buffer solution was added to the protein. The protein sample was excited at 280 nm and emission scans were collected from 290 to 400 nm, using slit widths of 0.3 nm on a QM 4/200SE spectrofluorimeter with double excitation and emission monochromators. Three emission scans were collected and averaged at each concentration. The Kd was determined using the Prism software package (GraphPad V5) to fit the data to Equation (Δ). λmax=(λmax^∞×[2])/(Kd+[2]) (A) in which λmax is the wavelength at which maximal fluorescence of the protein was observed.
# [2] = tested on: proMMP9-mediated migration of COS-1 cells; experiment: two-dimensional collagen dot migration assay, COS-1 cells overexpressing proMMP-9; type: cell-based; conditions: 50 μM
# Experimental: This assay was initially used to test the efficacy of analogs at a single concentration, 50 μM.
# Cells were mixed with type I collagen solution with or without compound, dotted onto a 96-well plate, and allowed to migrate for 18 hours. They were then fixed, stained and scored for extent of migration.
# proMMP-9 [3] = biological target: T1, proMMP-9; experiment: saturated transfer difference (STD) NMR, proMMP-9; type: binding; conditions: saturation of 1.12 ppm resonance
# Experimental: As an additional test of binding selectivity, saturated transfer difference (STD) NMR was performed with purified recombinant proMMP-2 and proMMP-9 protein. ProMMP-2 and proMMP-9 are highly similar in structure and function, belonging to the same subfamily of MMPs known as the type IV collagenases and/or gelatinases. Thus proMMP-2 constitutes the best control for testing the selectivity of the PEX-9 inhibitor. Selective saturation of the 1.12 ppm resonance (proMMP-2 and proMMP-9) was used for STD NMR spectra. […] Thus, binding specificity is maintained upon increasing binding affinity.
# [4] = tested on: proMMP9-mediated migration of COS-1 cells; experiment: two-dimensional dot migration assay, COS-1 cells stably expressing proMMP-9; type: cell-based
# Experimental: To test whether compound 3c is specific for inhibiting only proMMP9-mediated migration, a two-dimensional dot migration assay was performed using COS-1 cells engineered to stably express vector control pQCXIP, proMMP-2, proMMP-9, or proMMP-14 cDNA vectors. An immunoblot was performed to confirm protein expression and proper localization of each MMP (MMP-2/-9 are secreted while MMP-14 is membrane bound).
# [5] = biological target: T2, MMP-9 interaction with α4/β1 integrin (Homo sapiens, UniProt P14780); experiment: co-immunoprecipitation of endogenous integrin with MMP-9 in HT1080 cells; type: cell-based; conditions: 50 μM
# T2 construct: expressed in transfected cells; host or cells: HT1080 cells (MMP-9 transfected; integrin endogenous)
# Experimental: (§1) HT1080 cells transiently co-transfected with tagged MMP-9 cDNAs were prepared as described above.
# [6] = tested on: Src^Tyr418, FAK^Tyr576/577, PAX^Tyr118 phosphorylation; experiment: phosphorylation of Src and downstream targets in HT1080 cells; type: cell-based, Human; conditions: 50 μM
# Experimental: as §1
# T1 sequence (P14780 20-707 limits assumed): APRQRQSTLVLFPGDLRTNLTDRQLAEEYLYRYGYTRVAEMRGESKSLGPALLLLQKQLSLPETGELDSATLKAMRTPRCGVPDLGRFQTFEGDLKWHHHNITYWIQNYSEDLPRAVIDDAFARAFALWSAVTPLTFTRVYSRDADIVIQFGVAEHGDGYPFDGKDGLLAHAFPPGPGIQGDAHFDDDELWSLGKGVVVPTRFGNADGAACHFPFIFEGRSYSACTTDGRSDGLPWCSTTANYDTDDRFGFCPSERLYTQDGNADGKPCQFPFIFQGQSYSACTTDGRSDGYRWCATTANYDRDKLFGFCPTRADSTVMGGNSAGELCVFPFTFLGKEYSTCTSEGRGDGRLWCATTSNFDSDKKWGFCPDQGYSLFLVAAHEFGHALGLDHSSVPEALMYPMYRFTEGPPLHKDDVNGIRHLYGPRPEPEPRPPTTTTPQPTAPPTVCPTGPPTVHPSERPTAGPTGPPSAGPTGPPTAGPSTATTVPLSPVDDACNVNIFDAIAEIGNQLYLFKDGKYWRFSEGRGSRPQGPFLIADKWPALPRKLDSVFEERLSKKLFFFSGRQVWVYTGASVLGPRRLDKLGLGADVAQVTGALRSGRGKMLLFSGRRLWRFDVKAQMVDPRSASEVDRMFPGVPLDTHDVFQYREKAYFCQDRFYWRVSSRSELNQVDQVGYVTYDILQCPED
# T2 sequence (P14780 94-707): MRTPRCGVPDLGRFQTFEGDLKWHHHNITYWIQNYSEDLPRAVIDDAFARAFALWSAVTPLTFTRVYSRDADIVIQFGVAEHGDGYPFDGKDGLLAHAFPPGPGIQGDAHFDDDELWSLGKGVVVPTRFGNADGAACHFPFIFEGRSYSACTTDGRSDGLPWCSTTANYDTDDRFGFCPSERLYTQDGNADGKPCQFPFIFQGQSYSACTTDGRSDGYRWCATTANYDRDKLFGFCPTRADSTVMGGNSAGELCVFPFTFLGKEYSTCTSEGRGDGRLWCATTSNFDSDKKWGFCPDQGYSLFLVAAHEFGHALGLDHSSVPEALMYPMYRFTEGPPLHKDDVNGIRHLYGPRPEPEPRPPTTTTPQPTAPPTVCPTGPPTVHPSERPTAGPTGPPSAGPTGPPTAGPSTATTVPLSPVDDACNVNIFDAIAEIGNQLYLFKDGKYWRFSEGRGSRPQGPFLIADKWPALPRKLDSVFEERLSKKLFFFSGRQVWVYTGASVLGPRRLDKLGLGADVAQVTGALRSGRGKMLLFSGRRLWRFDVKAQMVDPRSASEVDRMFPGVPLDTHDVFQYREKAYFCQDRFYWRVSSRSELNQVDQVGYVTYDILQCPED
structure (smiles),measurement,setting,value
"O=C(CCCSc1nc2c(c(=O)[nH]1)CCCC2)Nc1ccc(F)cc1 [Compound 3c, N-(4-Fluorophenyl)-4-(4-oxo-3,4,5,6,7,8-hexahydroquinazolin-2-ylthio)butanamide]",binding to proMMP-9 relative to parent compound 1a,proMMP-9 [1]; Kd compared with 1a,four times tighter
same,Kd,"proMMP-9 [1]; binding to proMMP-9, tryptophan fluorescence",320 nM
same,effectiveness among the tested compounds in migration assay,[2],most effective
same,inhibition at 50 µM,"[2]; Chlorocebus aethiops, 18 hours",90 ± 2%
same,STD NMR peaks in presence of proMMP-9,proMMP-9 [3],STD peaks were observed
same,effectiveness at inhibiting migration compared with 1a,[4],significantly more effective at inhibiting migration
same,inhibition of proMMP-9-mediated migration,[4],only inhibited proMMP9-mediated migration
same,endogenous α4β3 integrin co-immunoprecipitation,[5],reduced endogenous α4β3 integrin co-immunoprecipitation
same,Src^Tyr418 phosphorylation and phosphorylation of FAK^Tyr576/577 and PAX^Tyr118,[6],reduced Src^Tyr418 phosphorylation
